Measured values: patent US20240315990A1, “Adelmidrol For Use In Diseases Characterized By Insufficient Agonism Of PPAR-GAMMA Receptor” (Epitech Group S.P.A., priority 2016, published 2024)

What was measured:
[1] = test system: carrageenan-induced rat paw edema; assay: carrageenan-induced rat paw edema, foot volume by plethysmometer; format: in vivo
Protocol: The experimental model of carrageenan-induced rat paw edema was used.
The experimental model of carrageenan-induced paw edema was induced by sub-plantarily injecting a solution of carrageenan (containing 50 μl of sterile saline containing 1% carrageenan) in the animal's right paw (rat).
The foot volume was measured at specific time intervals by means of a plethysmometer (Ugo Basile, Milan, Italy). The increase in plantar volume was assessed as the difference between the value obtained at the specific time intervals and the volume at baseline (time 0) measured immediately before the administration of carrageenan.
The rats (10 animals per group) were divided into the following experimental groups: • CAR+physiological solution; • CAR+Adelmidrol (3 mg/kg); Adelmidrol was administered i.p. when injecting CAR; • CAR+Adelmidrol (10 mg/kg); Adelmidrol was administered i.p. when injecting CAR.

[2] = test system: inflammatory cells in BAL fluid; assay: bleomycin-induced lung lesion, inflammatory cells in bronchoalveolar lavage (BAL) fluid; format: in vivo, CD1 male mice; conditions: BLM-treated mice, BAL seven days after induction
Protocol: CD1 male mice ((CD1(ICR) mice (25-35 g; Harlan Nossan, Italy) were accommodated in a controlled environment and fed with standard food and water.
Using a catheter (tracheotomy tube), the mice received a single intratracheal instillation of physiological solution (0.9%) or saline containing bleomycin sulfate (0.1 U/mouse) in a final volume of 100 μL, and the liquid was immediately followed by 300 μL of air in order to also ensure the distribution thereof in the distal airways.
Seven days after the induction of fibrosis, the mice were sacrificed and their trachea was immediately cannulated with an intravenous catheter made of polyethylene (Neo Delta Ven. 2, Delta Med, Viadana, Italy) equipped with a 1 mL 24-gauge syringe. The lungs were washed once with 0.5 mL of D-PBS (GIBCO, UK). In 95% of mice, the recovery volume exceeds 0.4 mL. The BAL fluid was centrifuged at 800 rpm, the surfactant was removed and the cell pellet was resuspended in PBS. The number of cells in the BAL fluid was obtained by counting on a hemocytometer in the presence of Trypan Blue. Cytospins were prepared from the cells resuspended in PBS. The slides were dried in dry air and then colored with Diff-Quick Set Stain (Diff-Quick, Baxter Scientific, Miami, FL). Using the optical microscopy, a total of 400 cells was examined from each sample in randomly chosen fields. […]

[3] = test system: MIA-induced articular cartilage erosion; assay: monosodium iodoacetate (MIA)-induced articular lesion, cartilage erosion by stereomicroscope; format: in vivo; conditions: Adelmidrol 150 μg/25 μL i.a.
Protocol: FIG. 1A. Images obtained by a stereomicroscope on the state of erosion of the interposed cartilage in the right knee of each experimental group: control, MIA, Adelmidrol 150 μg/25 μL i.a. The analysis was performed 21 days after the induction of the disease.
FIG. 1B. Effect of the treatment with Adelmidrol 150 μg/25 μL i.a. on the erosive lesion of the interposed cartilage upon injection of MIA, compared to MIA and control groups treated with the solvent;
A microscopic analysis of the lesion related to the articular cartilage was performed by comparing the erosive lesion of the articular cartilage between the following groups: animals not treated with MIA, animals treated with MIA+solvent, and animals treated with MIA+solvent added with Adelmidrol. […] In the image corresponding to the animal damaged through MIA, an extensive cartilage erosion is apparent, which also allows to distinguish the subchondral bone, unlike the animal control whose joint is in excellent condition. […] Each image was given a score from 0 to 4 (0=normal; 4=maximum degree of injury severity) expressing the articular cartilage lesion in terms of increasing severity (Janusz M J et al. Ostearthritis and Cartilage 2001; 9:751-760), as described by Guingamp et al. (Guingamp C. et al. Arthritis & Rheumatism 1997; Vol 40 No 9:1670-1679).

PPAR-gamma receptor = biological target: T1, PPAR-gamma receptor (Rattus norvegicus, UniProt O88275); assay: carrageenan-induced rat paw edema with PPAR-gamma antagonist GW9662, residence time of the paw on the hot plate; format: in vivo
T1 construct: from tissue; host or cells: live rat (in vivo, paw edema model)
T1 sequence (O88275 1-505): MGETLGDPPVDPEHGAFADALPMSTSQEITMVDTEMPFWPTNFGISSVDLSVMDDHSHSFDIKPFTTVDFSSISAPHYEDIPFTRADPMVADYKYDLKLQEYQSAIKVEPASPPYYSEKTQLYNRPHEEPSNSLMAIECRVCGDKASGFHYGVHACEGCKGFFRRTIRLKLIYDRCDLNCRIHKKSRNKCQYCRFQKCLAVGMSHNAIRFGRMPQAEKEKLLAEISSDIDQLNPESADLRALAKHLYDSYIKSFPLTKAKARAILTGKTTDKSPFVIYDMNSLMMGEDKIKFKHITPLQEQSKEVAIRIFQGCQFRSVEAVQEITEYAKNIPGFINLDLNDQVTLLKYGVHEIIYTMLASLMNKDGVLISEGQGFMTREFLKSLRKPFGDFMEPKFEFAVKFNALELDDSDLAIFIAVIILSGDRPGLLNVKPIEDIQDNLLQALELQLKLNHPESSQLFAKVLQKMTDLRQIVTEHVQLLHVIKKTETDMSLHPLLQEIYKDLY
Protocol: The experimental model of carrageenan-induced rat paw edema is as shown above. In this experiment, the effect was assessed by measuring the residence time of the animal's paw on the hot plate, thus obtaining percentage data with respect to the control treated with carrageenan alone.
The rats (10 animals per group) were divided into the following experimental groups: • CAR+physiological solution; • CAR+GW9662 (1 mg/kg)+Adelmidrol (10 mg/kg); GW9662 was administered i.p. 30 min before injecting CAR and Adelmidrol (i.p.) when injecting CAR; • CAR+Adelmidrol (10 mg/kg); Adelmidrol was administered i.p. when injecting CAR.

residence time of the paw on the hot plate, percentage with respect to the control treated with carrageenan alone (PPAR-gamma receptor; Adelmidrol 10 mg/kg ip alone, 0 min.): 107.4 percentage
residence time of the paw on the hot plate, percentage with respect to the control treated with carrageenan alone (PPAR-gamma receptor; Adelmidrol 10 mg/kg ip alone, 30 min): 98.5 percentage
residence time of the paw on the hot plate, percentage with respect to the control treated with carrageenan alone (PPAR-gamma receptor; Adelmidrol 10 mg/kg ip alone, 1 hr): 123.2 percentage
residence time of the paw on the hot plate, percentage with respect to the control treated with carrageenan alone (PPAR-gamma receptor; Adelmidrol 10 mg/kg ip alone, 2 hr): 134.2 percentage
residence time of the paw on the hot plate, percentage with respect to the control treated with carrageenan alone (PPAR-gamma receptor; Adelmidrol 10 mg/kg ip alone, 3 hr): 146.8 percentage
residence time of the paw on the hot plate, percentage with respect to the control treated with carrageenan alone (PPAR-gamma receptor; Adelmidrol 10 mg/kg ip alone, 4 hr): 197.7 percentage
residence time of the paw on the hot plate, percentage with respect to the control treated with carrageenan alone (PPAR-gamma receptor; Adelmidrol 10 mg/kg ip alone, 5 hr): 175.0 percentage
residence time of the paw on the hot plate, percentage with respect to the control treated with carrageenan alone (PPAR-gamma receptor; GW9662 1 mg/kg i.p. 30 min before CAR + Adelmidrol 10 mg/kg i.p., 0 min.): 105.2 percentage
residence time of the paw on the hot plate, percentage with respect to the control treated with carrageenan alone (PPAR-gamma receptor; GW9662 1 mg/kg i.p. 30 min before CAR + Adelmidrol 10 mg/kg i.p., 30 min): 96.2 percentage
residence time of the paw on the hot plate, percentage with respect to the control treated with carrageenan alone (PPAR-gamma receptor; GW9662 1 mg/kg i.p. 30 min before CAR + Adelmidrol 10 mg/kg i.p., 1 hr): 102.4 percentage
residence time of the paw on the hot plate, percentage with respect to the control treated with carrageenan alone (PPAR-gamma receptor; GW9662 1 mg/kg i.p. 30 min before CAR + Adelmidrol 10 mg/kg i.p., 2 hr): 104.1 percentage
residence time of the paw on the hot plate, percentage with respect to the control treated with carrageenan alone (PPAR-gamma receptor; GW9662 1 mg/kg i.p. 30 min before CAR + Adelmidrol 10 mg/kg i.p., 3 hr): 111.3 percentage
residence time of the paw on the hot plate, percentage with respect to the control treated with carrageenan alone (PPAR-gamma receptor; GW9662 1 mg/kg i.p. 30 min before CAR + Adelmidrol 10 mg/kg i.p., 4 hr): 114.1 percentage
residence time of the paw on the hot plate, percentage with respect to the control treated with carrageenan alone (PPAR-gamma receptor; GW9662 1 mg/kg i.p. 30 min before CAR + Adelmidrol 10 mg/kg i.p., 5 hr): 112.5 percentage
Structure (SMILES): O=C(CCCCCCCC(=O)NCCO)NCCO [Adelmidrol, azelaic acid diethanolamide]
effect on carrageenan-induced edema (in words) ([1]; 3 and 10 mg/kg i.p.): reduction of the carrageenan-induced edema with a dose-dependent action
paw edema as a percentage with respect to the edema produced by carrageenan alone ([1]; Adelmidrol 3 mg/kg i.p. when injecting CAR, 0 min.): 101.2 percentage
paw edema as a percentage with respect to the edema produced by carrageenan alone ([1]; Adelmidrol 3 mg/kg i.p. when injecting CAR, 30 min): 86.7 percentage
paw edema as a percentage with respect to the edema produced by carrageenan alone ([1]; Adelmidrol 3 mg/kg i.p. when injecting CAR, 1 hr): 71.9 percentage
paw edema as a percentage with respect to the edema produced by carrageenan alone ([1]; Adelmidrol 3 mg/kg i.p. when injecting CAR, 2 hr): 72.3 percentage
paw edema as a percentage with respect to the edema produced by carrageenan alone ([1]; Adelmidrol 3 mg/kg i.p. when injecting CAR, 3 hr): 69.8 percentage
paw edema as a percentage with respect to the edema produced by carrageenan alone ([1]; Adelmidrol 3 mg/kg i.p. when injecting CAR, 4 hr): 67.2 percentage
paw edema as a percentage with respect to the edema produced by carrageenan alone ([1]; Adelmidrol 3 mg/kg i.p. when injecting CAR, 5 hr): 67.4 percentage
paw edema as a percentage with respect to the edema produced by carrageenan alone ([1]; Adelmidrol 10 mg/kg i.p. when injecting CAR, 0 min.): 102.6 percentage
paw edema as a percentage with respect to the edema produced by carrageenan alone ([1]; Adelmidrol 10 mg/kg i.p. when injecting CAR, 30 min): 81.6 percentage
paw edema as a percentage with respect to the edema produced by carrageenan alone ([1]; Adelmidrol 10 mg/kg i.p. when injecting CAR, 1 hr): 68.7 percentage
paw edema as a percentage with respect to the edema produced by carrageenan alone ([1]; Adelmidrol 10 mg/kg i.p. when injecting CAR, 2 hr): 63.8 percentage
paw edema as a percentage with respect to the edema produced by carrageenan alone ([1]; Adelmidrol 10 mg/kg i.p. when injecting CAR, 3 hr): 53.6 percentage
paw edema as a percentage with respect to the edema produced by carrageenan alone ([1]; Adelmidrol 10 mg/kg i.p. when injecting CAR, 4 hr): 49.5 percentage
paw edema as a percentage with respect to the edema produced by carrageenan alone ([1]; Adelmidrol 10 mg/kg i.p. when injecting CAR, 5 hr): 49.5 percentage
number of macrophages, neutrophils and lymphocytes in BAL fluid (FIGS. 7 and 8) [2]: reduces the number of macrophages, neutrophils and lymphocytes in a very significant manner
cartilage erosion of the tibial plateau, stereomicroscope image (FIG. 1A) ([3]; 21 days after induction with MIA): clear protection against cartilage erosion
cartilage erosion, quantitative analysis of score 0 to 4 (FIG. 1B) ([3]; compared to MIA + solvent): noticeably slow down the cartilage erosion in a statistically significant manner
